Results reported in US20110189174A1, “COMPOSITIONS AND METHODS FOR TREATING, REDUCING, AMELIORATING, ALLEVIATING, OR INHIBITING PROGRESSION OF, PATHOGENIC OCULAR NEOVASCULARIZATION” (priority 2010, published 2011).

Columns and labels:
[1] = Intraocular pressure (Tono-pen) in monkeys after intravitreal injection; format: in vivo, cynomolgus monkeys (Macaca fascicularis)
Procedure: Once the phase Ib study was completed, and it was established that the drug suspension in oil would not interfere with either laser administration, evaluation of CNV or cause adverse effects, phase II was initiated. On days 1, and 15 both eyes of monkeys received 50 μL of Lucentis (0.5 mg/eye), vehicle (0 mg/eye), BOL-303050-X (1.5 mg/eye), BOL-303054-X (1.5 mg/eye) or BOL-303055-X (1.5 mg/eye) (Table 2). Intravitreous injection was performed for each by eye aiming towards mid-vitreous body. Dosing in the right eye was alternated for successive doses (as applicable) at approximately the 11 o'clock and 10 o'clock positions. Dosing in the left eye was alternated for successive doses (as applicable) from approximately the 1 o'clock and 2 o'clock positions.
IOP was done in conjunction with the OE using a Tono-pen on anesthetized monkeys on days 1, 3, 7, 15, and 31 of dosing Phase II and on the day of scheduled sacrifice (day 38).
Grade IV lesions were analyzed using either Fisher's exact probability test (2-Tail) or Chi square test (χ2). For the analysis of delta changes in TOP a two-way ANOVA with repeated measures followed by the contrast procedure was performed on Box-Cox transformed data if needed. Unless indicated otherwise, data are presented as means±SEM unless stated otherwise. P<0.05 was considered statistically significant.

[2] = system: human retinal endothelial cells (HREC); test: Testing 6: VEGF-induced HREC proliferation (MTS assay), BOL-303055-X and Avastin alone and in combination; format: cell-based; settings: for Inhibition of VEGF-induced HREC proliferation, agent alone: Avastin 3-300 ng/ml (significant from 30 ng/ml)
Procedure: HREC were first cultured overnight in a 96-well plate coated with fibronectin. The next day, cells were serum-starved for 2 hours. The medium containing different agents as shown in Table 12 was pre-incubated for 1 hour before being added into appropriate wells. The cells were further cultured at 37° C., 5% CO2, and 95% humidity for another 3 days. After that, cell proliferation was estimated by the MTS assay—a cell metabolic activity assay (disclosed hereinabove).
A 96-well plate was coated with human fibronectin (10 μg/ml) for 5 h at 37° C., 5% CO2, and 95% humidity. HREC were collected from flasks by EDTA-trypsin treatment and re-suspended in 10% FBS CS-C medium at 18,000 cells/ml. Cells (200 μl/well) were added to the plate and cultured for overnight at 37° C., 5% CO2, and 95% humidity. Next day, medium was aspirated and serum-free medium was added to wells at 200 μl/well for 2 hours.
Normal IgG was also added in such a way that all groups contained the same amount of IgG protein. All medium solutions were incubated for 1 h at 37° C., 5% CO2, and 95% humidity. After carefully aspirating the medium from cells, 200 μl of the medium containing different agents was added into appropriate wells. The cells were further cultured for 3 days.
(§1) At the end of incubation, the medium was carefully aspirated from cells and 120 μl of MTS working solution was added into all wells. The plate was incubated at 37° C., 5% CO2, and 95% humidity for 1 hour and then read by a plate reader at 490 nm wavelength.
(§2) Median optical density (OD) was generated from different groups. Data were expressed as mean±SEM of the OD values. Statistical analysis was performed using a three-way ANOVA followed by the contrast procedure on log-transformed data, and P<0.05 was considered statistically significant. […] All the data from the individual wells were fitted to a re-parameterized four-parameter logistic equation to obtain IC50 using similar methodology as that previously described and utilizing the statistical analysis software JMP (SAS Institute, Cary, N.C.).

[3] = system: human retinal endothelial cells (HREC); test: Testing 5: VEGF-induced HREC proliferation (MTS assay), echistatin and Avastin alone and in combination; format: cell-based
Procedure: HREC were first cultured overnight in a 96-well plate coated with fibronectin. The next day, cells were serum-starved for 2 h before treatment. Medium containing different agents as shown in table below was pre-incubated for 1 h before being added to cells. The cells were cultured at 37° C., 5% CO2, and 95% humidity for another 3 days. After that, cell proliferation was estimated by the MTS assay. […] Normal human IgG was also added to different groups in such a way that all groups contained the same amounts of IgG protein.
A 96-well plate was coated with human fibronectin (10 μg/mL) for 5 hours. HREC were collected from flasks by EDTA-trypsin treatment and re-suspended in 10% FBS CS-C medium at 15,000 cells/mL. Cells (200 μL) were added to the plate and cultured overnight at 37° C., 5% CO2, and 95% humidity. Next day, the medium was removed and 200 μl/well serum free medium was added.
All medium solutions were incubated for 1 h at 37° C. After carefully aspirating the medium from cells, […], of the medium containing the different agents was added into appropriate wells. The cells were cultured for another 3 days.
as §1, with “wells including blank wells (without cells).” for “wells.”, “then absorbance was” for “then”
as §2, with “one or two-way” for “three-way”, “using Box-Cox transformed data if needed,” for “followed by the contrast procedure on log-transformed data,”

[4] = rat, in vivo
Procedure: The anterior segment of the eye was examined using a slit-lamp biomicroscopy for excluding any animals with abnormalities that might interfere with the study. Fundus photography and fluorescein angiography (FA) were performed to document the health of the retina and the ocular circulation using a TRC 50EX fundus camera (Topcon). For FA, 10% sodium fluorescein was injected intravenously (50 mg/kg of body weight) through the tail vein or the vein under the incisor before the procedure.
Immediately after placement of laser photocoagulation, the experimental eyes received an intravitreal injection of either a compound or a vehicle as described in Table 5. Following the disinfection of ocular surface with 5% betadine and 0.9% saline solutions, the injections were performed with aid of a surgical microscope using 0.3 mL syringes with a 31-gauge ½-inch long needle (Ultra-Fine II™ Insulin syringe, BD, Franklin Lakes, N.J.).
Two weeks after photocoagulation, all rats were examined under anesthesia and pupil dilation with slit-lamp biomicroscopy, fundus photography and FA as described in the baseline examination.

[5] = BOL-303055-X 1 nM, VEGF 10 ng/ml

Molecule | Reduction of IOP versus baseline ([1]; day 38 only, 1.5 mg/eye intravitreal days 1 and 15) [mm Hg] | HREC proliferation under basal conditions ([2]; 1 nM, no VEGF) | Enhancement of Avastin potency ([2]; BOL-303055-X 1 nM) | Inhibition of VEGF-induced HREC proliferation, agent alone [2, 5] | Combination effect with Avastin on VEGF-induced HREC proliferation (synergistic/additive) ([2]; BOL-303055-X 1 nM, Avastin 10 to 100 ng/ml) | IOP change compared with baseline ([1]; right eyes day 15, left eyes days 3 and 15) | Increase in IOP compared to baseline ([1]; right eyes, day 31, 1.5 mg/eye intravitreal days 1 and 15) [mm Hg] | IC50 ± SE of Avastin plus BOL-303055-X on inhibiting VEGF-induced proliferation of HREC ([2]; VEGF 10 ng/ml, BOL-303055-X 1 nM, estimated) [µg/mL] | IC50 ± SE of Avastin alone on inhibiting VEGF-induced proliferation of HREC ([3]; VEGF 10 ng/mL, estimated) [µg/mL] | Inhibition of VEGF-induced HREC proliferation, agent alone ([3]; echistatin 2 nM, Avastin 0.625-10 ng/ml (significant at 10 ng/ml), VEGF 10 ng/mL) | HREC proliferation under basal conditions ([3]; echistatin 2 nM, Avastin 0.625-10 ng/ml, no VEGF) | Intraocular inflammation and retinal vascular congestion [4]
COc1ccc(S(=O)(=O)N[C@@H](CNc2nc(C)nc(N3CCC(c4ccc5c(n4)NCCC5)CC3)c2C)C(=O)O)cc1 [BOL-303050-X] | 4 |  |  |  |  |  |  |  |  |  |  | 
CCc1nc(NC[C@H](NC(=O)OCc2ccccc2)C(=O)O)c(C)c(N2CCC(c3ccc4c(n3)NCCC4)CC2)n1 [BOL-303055-X] |  | significantly inhibited | approximately 3.8 fold | reduced VEGF-induced proliferation in a statistically significant manner | synergistic effects | reduced IOP | 4 |  |  |  |  | 
bevacizumab [Avastin, reference compound] |  |  |  | dose-dependent inhibition |  |  |  | 0.016 | 0.021 | dose-dependent inhibition | no effect | no intraocular inflammation and retinal vascular congestion was recorded
